Test results as given in PMC8044163, “Vitamin D and lumisterol derivatives can act on liver X receptors (LXRs)” (Scientific Reports, 2021).

How the values were obtained:
LXRα = biological target: T1, LXRα (Homo sapiens, UniProt Q13133); experiment: Ligand induced translocation of LXRα to the nucleus, immunofluorescence in HaCaT; assay type: cell-based; conditions: 10^−7 M, 24 h
T1 construct: endogenous in cells; host or cells: HaCaT keratinocytes
T1 sequence (Q13133 1-447): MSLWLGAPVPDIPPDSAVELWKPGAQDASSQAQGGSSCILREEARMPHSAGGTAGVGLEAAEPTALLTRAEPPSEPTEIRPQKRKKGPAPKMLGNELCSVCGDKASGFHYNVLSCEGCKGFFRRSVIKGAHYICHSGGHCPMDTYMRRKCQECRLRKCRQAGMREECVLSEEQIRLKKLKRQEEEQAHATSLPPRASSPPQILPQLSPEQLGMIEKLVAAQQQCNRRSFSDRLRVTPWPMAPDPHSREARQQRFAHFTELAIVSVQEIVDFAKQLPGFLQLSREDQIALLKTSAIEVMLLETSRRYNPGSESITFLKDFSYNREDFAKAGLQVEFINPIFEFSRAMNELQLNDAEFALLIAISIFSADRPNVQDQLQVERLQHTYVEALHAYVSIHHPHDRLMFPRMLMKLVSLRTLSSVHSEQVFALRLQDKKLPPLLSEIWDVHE
Experimental: (§1) HaCaT cells were plated in DMEM plus 5% cFBS either on a sterile glass cover slip placed in a well of a 6-well plates for immunofluorescence (IF) assays or TPP Petri dishes for image-stream flow cytometry, and treated with 10^–7 M D3- or L3-hydroxyderivatives or 0.1% ethanol (vehicle) as a negative control was added to each well, and the cells were incubated for 12 or 24 h at 37 °C with 5% CO2. For IF the cells were fixed in 4% paraformaldehyde for 15 min, incubated in 0.5% Triton X-100 in phosphate-buffered saline (PBS) for 5 min, and washed 3 times in PBS. After blocking with 2% bovine serum albumin (BSA) in PBS for 1 h at room temperature, the cells were treated with an anti-LXRα antibody (Novus Biologicals, LLC, Centennial, CO) at 1:200 in PBS supplemented with 2% BSA overnight in 4 °C. After washing the slides were incubated with a mouse anti-rabbit IgG-FITC (Santa Cruz Biotechnology, Inc, Dallas, TX) at 1:200 dilution for 1.5 h at 37 °C. After washing the slides were mounted using propidium iodide (PI) (Vector Labs, Burlingame, California) as a nuclear counterstain. The slides were examined using a KEYENCE America BZ-X710 Fluorescence Microscope (Itasca, IL). The images were subsequently analyzed using the JACoP plugin for colocalization analysis with ImageJ[74]. Five separate high-power field (40×) images were converted to grayscale and analyzed for each condition. Manders’ coefficient (M1), calculated using a preset threshold, was used to quantify the degree of colocalization between PI and LXRα with 0 representing no colocalization, and 1 representing perfect colocalization.

VDR = biological target: T2, VDR (Homo sapiens, UniProt P11473); experiment: Translocation of VDR to the nucleus, imaging flow cytometry in HaCaT; assay type: cell-based; conditions: 10^–7 M, 12 h
T2 construct: endogenous in cells; host or cells: HaCaT keratinocytes
T2 sequence (P11473 1-427): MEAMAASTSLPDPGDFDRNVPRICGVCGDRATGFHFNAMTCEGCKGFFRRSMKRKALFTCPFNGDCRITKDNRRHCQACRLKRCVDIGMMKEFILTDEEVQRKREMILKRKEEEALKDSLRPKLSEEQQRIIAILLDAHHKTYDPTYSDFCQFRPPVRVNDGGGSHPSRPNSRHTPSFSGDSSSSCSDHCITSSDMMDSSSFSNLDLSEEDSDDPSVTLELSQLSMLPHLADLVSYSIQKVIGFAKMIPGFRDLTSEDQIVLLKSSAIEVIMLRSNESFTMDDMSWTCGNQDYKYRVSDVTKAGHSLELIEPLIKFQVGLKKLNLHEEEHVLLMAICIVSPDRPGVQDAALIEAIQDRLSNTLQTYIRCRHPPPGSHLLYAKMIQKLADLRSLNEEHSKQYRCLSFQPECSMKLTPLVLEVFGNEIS

ABCA1 = experiment: qPCR of ABCA1 in HaCaT keratinocytes; assay type: cell-based, human; conditions: 10^–7 M
Experimental: HaCaT keratinocytes were cultured as described previously. For RNA isolation the cells were maintained in TPP tissue culture petri dishes (Ø60 mm, 22.1 cm^2) in DMEM containing 10% cFBC to reach semi-confluence and then exposed to 10^–7 M compounds or a corresponding concentration of ethanol solvent.
RNA isolated from either fibroblasts, HaCaT cells or brain was submitted for cDNA synthesis (High Capacity cDNA Reverse Transcription Kit with RNase Inhibitor, Applied Biosystems) following the manufacturers’ protocols. RT-PCR was carried out using Cyber green, in triplicates; as previously described. Approximately, 750 ng of cDNA was used for PCR reactions. GAPDH and CIC-B were used as internal controls. Primer sequences are listed in Supplementary Table 27. Data were analyzed using GraphPad Prism statistical software one way ANOVA or t-test, where appropriate; *p < 0.05; **p < 0.01; ***p < 0.001.

LBD of LXRβ = biological target: T3, LBD of LXRβ (Homo sapiens, UniProt P55055); experiment: LanthaScreen TR-FRET LXRβ coactivator assay (LXR binding assay); assay type: biochemical; conditions: agonist; average values; read-out: LXRβ EC50
T3 construct: purchased Thermo Fisher Scientific
T3 sequence (P55055 222-460 limits assumed): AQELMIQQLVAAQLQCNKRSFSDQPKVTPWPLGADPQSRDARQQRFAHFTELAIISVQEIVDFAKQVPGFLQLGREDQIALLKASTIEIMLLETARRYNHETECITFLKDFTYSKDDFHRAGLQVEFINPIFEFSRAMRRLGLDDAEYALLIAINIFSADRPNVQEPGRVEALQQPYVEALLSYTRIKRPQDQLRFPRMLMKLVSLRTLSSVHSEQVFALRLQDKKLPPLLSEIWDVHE
Experimental: (§2) Binding assays of graded concentrations of vitamin D3 or lumisterol hydroxyderivatives to LXRα/β were performed using the LanthaScreen TR-FRET LXRα/β Coactivator kit (Thermo Fisher Scientific, Inc., Waltham, MA) following the manufacture’s protocol. Briefly, after addition of LXRα/β-LBD to the derivatives, a mixture of peptide (Fluorescein-TRAP220/DRIP-2 for LXRα or Fluorescein-D22 for LXRβ) and antibody (Tb-anti-GST) was added to the reaction followed by incubation in room temperature for 2 h. TR-FRET ratio was calculated by dividing the emission at 520 nm by the emission at 495 nm using Synergy neo2 (BioTek, Winooski, VT).

LXRα/β = experiment: Ligand induced translocation of LXRα/β to the nucleus, imaging flow cytometry in HaCaT; assay type: cell-based, human; conditions: 10^–7 M, 12 h
Experimental: as §1
For Image Stream II (Amnis, Seattle, WA, USA) cytometer analyses, HaCaT cells were detached and processed as previously described. The cells were fixed with paraformaldehyde and permeabilized in methanol containing buffer[78],[79] and Hoechst stain (r37165, ThermoFisher) and rabbit antibodies to LXRα/β (sc 377260, AF 647, SantaCruz) or VDR (sc-13133, AF 488, SantaCruz) as described previously. Data were analyzed using IDEAS software (Amnis, Seattle, WA, USA).

LBD of LXRα = biological target: T4, LBD of LXRα (Homo sapiens, UniProt Q13133); experiment: LanthaScreen TR-FRET LXRα coactivator assay (LXR binding assay); assay type: biochemical; conditions: agonist; average values; read-out: LXRα EC50
T4 construct: after addition of LXRα/β-LBD to the derivatives; purchased Thermo Fisher Scientific
T4 sequence (Q13133 209-447 limits assumed): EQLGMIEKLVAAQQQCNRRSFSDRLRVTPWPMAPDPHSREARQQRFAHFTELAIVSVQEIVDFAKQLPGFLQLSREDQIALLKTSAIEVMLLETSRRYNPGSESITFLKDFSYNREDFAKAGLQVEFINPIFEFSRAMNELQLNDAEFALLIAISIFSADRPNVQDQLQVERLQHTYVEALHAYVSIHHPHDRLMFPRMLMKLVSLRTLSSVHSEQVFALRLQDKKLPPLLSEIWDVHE
Experimental: as §2

[1] = system: LXR-response element (LXRE)-driven reporter in CHO cells; experiment: LXRE-driven luciferase reporter assay in CHO cells; assay type: cell-based; conditions: 10^–7 M, CHO cells
Experimental: The effects of vitamin D3 and L3 hydroxyderivatives were tested on the LXRE transcriptional activity using pGreenFire1-LXRE-in-ApoE Lentivirus (System Biosciences, Palo Alto, CA). This plasmid was transduced in CHO and HaCaT cells following the manufacture’s protocol and the cells used as a stable LXRE expressed tool. Briefly, the virus was transduced into the cells using TransDux MAX Lentivirus Transduction Enhancer (System Biosciences, Palo Alto, CA) and screened to select the transduced cells using puromycin. The transduced cells were treated with the compounds for 24 h in media containing 5% cFBS (charcoal-treated fetal bovine serum) and the luminescence was read by ONE-Glo Luciferase Assay System (Promega, Madison, WI) using Cytation 5 (BioTek, Winooski, VT).

C=C1CC[C@H](O)C/C1=C/C=C1\CCC[C@]2(C)[C@@H]([C@H](C)CCCC(C)(C)O)CC[C@@H]12 [25(OH)D3, reference compound]
translocation of LXRα to the nucleus (immunofluorescence, Manders' coefficient) (LXRα): induced translocation | translocation of VDR from the cytoplasm to the nucleus (VDR): increased translocation | ABCA1 RNA expression (qPCR) (ABCA1): stimulation | EC50 (LBD of LXRβ): 3.8 µM | translocation of LXRα/β from the cytoplasm to the nucleus (LXRα/β): increased translocation | EC50 (LBD of LXRα): 0.011 µM

C=C1CCC(O)CC1=CC=C1CCCC2(C)C1CCC2(O)C(C)O (stereo not drawn) [17,20(OH)2pD]
EC50 (LBD of LXRβ): 2.6 µM | LXRE luciferase (transcriptional) activity [1]: weakest stimulant | EC50 (LBD of LXRα): 30 µM
